{"source": "patent US20140194506A1", "about": "“Use of Potassium Piperonyl Pentadienoate for Lowering Blood Lipid” (INNER MONGOLIA UNIVERSITY, priority 2011, published 2014)", "key": {"[1]": {"tested_on": "high lipid mode white rats", "test": "Prophylactic blood lipid lowering in high lipid feed white rats (Example 2)", "assay_type": "in vivo, Wistar male white rats", "text": "High lipid feed formula: cholesterol 3%, lard 10%, sodium cholate 0.5%, basal feed: […] (formula: flour 17.14%, rice flour 8.57%, maize […], bran 21%, fish flour 1.71%, dairy salt 0.857%, vitamin 0.085%, bean material 17.14%).\n60 Wistar White male rats of 150±10 g of body weight were fed with common standard feed for 5 days, and then divided into 6 groups randomly. Each group included 10 rats. Group I was a blank group, where the rats were fed with common standard feed. Group II was a high lipid feed mode control group. Group III was a Simvastatin 10 mg/kg group. Group IV was a GB-O group. Group V was a GB-H group. Group VI was a GB-K group. High lipid feed mode control group were fed with high lipid feed together with distilled water. Groups III, IV, V, and VI were fed with high lipid feed together with required simvastatin, GB-O, GB-H, and GB-K suspensions (formulated by grinding with 0.5% sodium […] CMC-Na) respectively. The dosing amount was 0.046 mmol/kg, and the amount of high lipid feed was 20 g per day for each rat. The grouping and the dosing amount for each group can be found in table 1.\n(§1) The body weights of white rats were determined and recorded every day. The rats in each group were dosed basing on its body weight by feeding for 14 days at 22° C. of room temperature and 40-50% of relative humidity. On the 14th day, after fasting and freely receiving water for 16 hours, its blood was sampled from aorta, placed for 30 min to blood coagulate, and centrifugated for 15 min at 3000 r/min to separate serum. The values of serum total cholesterol (TC), and triglyceride (TG) were determined on an automatic analyzer using enzymatic colorimetry, the value of high density lipoprotein cholesterol (HDL) was determined using a phosphotungstic acid-Mg precipitation method, and the value of low density lipoprotein cholesterol (LDL) was determined using the polyvinyl sulfate precipitation method.\nAll data were treated statistically, and were presented as means±standard deviations (x±s). The significance of difference was judged by T test. The calculation of p value was obtained by comparing the high lipid mode group with the blank control group, and comparing other test drug groups with the high lipid mode group.\nThe reaction temperature was 37° C. The cholesterol ester in serum was first hydrolyzed into free cholesterol (FC) and fatty acid with cholesterol ester hydrolase (CEH). Then, all FC in serum was oxidized into ch-4-en-3-one and H2O2 with cholesterol oxidase (COD). The resulting H2O2 was reacted with 4-aminoantipyrine (4-AAP) and 4-chlorophenol in the presence of peroxidase (POD) (Trinder reaction), to yield red quinine imine, which was calorimetrically tested at a 500 nm wavelength.\nThe reaction temperature was 37° C. The triglyceride ire serum was first hydrolyzed into glycerol and fatty acid with lipoprotein lipase (LPL). The resulting glycerol was reacted with ATP in the presence of glycerol kinase (GK), to produce glycerol-3-phosphate and ADP. The resulting glycerol-3-phosphate was oxidized into dihydroxyacetone phosphate and H2O2 with oxygen in the presence of glycerol phosphate oxidase (GPO). The resulting H2O2 was reacted with 4-aminoantipyrine (4-AAP) and 4-chlorophenol in the presence of peroxidase (POD) (Trinder reaction), to yield red quinine imine, which was colorimetrically determined at a 500 nm wavelength.\nThe LDL in serum was precipitated using PVS. The serum TC and the Ch in the resulting supernatant were determined using the enzymatic methods described hereinabove, and the LDL-C was calculated by subtracting the Ch from the serum TC. The polyethylene glycol monoether (PEGME) was added in a suitable amount in order to facilitate the precipitation of LDL. […]"}, "[2]": {"tested_on": "high lipid mode white rats", "test": "Therapeutic blood lipid lowering in hyperlipoidemia mode white rats (Example 3)", "assay_type": "in vivo, Wistar male white rats", "text": "High lipid feed formula: cholesterol 3%, lard 10%, sodium cholate 0.5%, basal feed: 86.5% (formula: flour 17.14%, rice flour 8.57%, maize 17.14%, bran 21%, fish flour 1.71%, dairy salt 0.857%, vitamin 0.085%, bean material 17.14%).\n72 Wistar white male rats of 170±10 g of body weight were divided into 6 groups randomly and numbered. Each group included 12 rats. The rats were fed with common standard feed under experimental conditions and observed for 7 days, and its blood was sampled from tail for testing serum total cholesterol (TC). […] From the 8th day, the group I was set as a blank group, and was fed with common standard feed. Other groups were fed with high lipid feed for 8 days in a row, and the blood was sampled from tail on the next day for testing TC. […] The rats then were divided into 5 groups randomly (see table 12) according to TC levels. Each group included 10 rats (10 rats who were unsuccessful blood lipid modes were discarded). The rats were ted with high lipid teed continuously. Group was a high lipid feed mode control group. Group III was a Simvastatin 10 mg/kg group. Group IV was a GB-O group. Group V was a GB-H group. Group VI was a GB-K group. The high lipid feed mode control group was fed with high lipid feed together with distilled water. Groups III, IV, V, and VI were fed with high lipid feed together with required simvastatin, GB-O, GB-H, and GB-K suspensions (formulated by grinding with 0.5% sodium carboxymethycellulose CMC-Na) respectively. The dosing amount was 0.046 mmol/kg, and the amount of high lipid feed was 20 g per day for each rat. The grouping and the dosing amount for each group can be found in table 13.\nas §1, with “rats for” for “rats in”, “dosed basing,” for “dosed basing”, “hours, the” for “hours, its”, “coagulate,” for “coagulate, and”, “using a” for “using the”\nAll data were treated statistically, and are presented as means standard deviations (x±s). The significance of difference was judged by T test. The calculation of p value was obtained by comparing the high lipid mode group with the blank control group, and comparing other test drug groups with the high lipid mode group.\nThe reaction temperature was 37° C. The cholesterol ester in serum was first hydrolyzed into free cholesterol (FC) and fatty acid with cholesterol ester hydrolase (CEH.) Then, all FC in serum was oxidized into ch-4-en-3-one and H2O2) with cholesterol oxidase (COD). The resulting H2O2, was reacted with 4-aminoantipyrine (4-AAP) and 4-chlorophenol in the presence of peroxidase (POD) (Trinder reaction), to yield red quinine imine, which was colarimetrically tested at 500 nm wavelength.\nThe reaction temperature was 37° C. The triglyceride in serum was first hydrolyzed into glycerol and fatty acid with lipoprotein lipase (LPL). The resulting glycerol was reacted with ATP in the presence of glycerol kinase (GK), to produce glycerol-3-phosphate and ADP. The resulting glycerol-3-phosphate was oxidized into dihydroxyacetone phosphate and H2O2 with oxygen in the presence of glycerol phosphate oxidase (GPO). […]"}, "[3]": {"details": "group mean n=10, 15th day after administration"}, "[4]": {"details": "in comparison with group II (high lipid mode control group)"}, "[5]": {"details": "rats No. 1-10, 0.046 mmol/kg (Simvastatin 10 mg/kg), 15th day after administration"}}, "note": "Values joined by “and” are separate entries in the source; they are usually repeats but may differ in a detail not shown here. Identical values can stand only once.", "data": [{"smiles": "O=C(O)/C=C/C=C/c1ccc2c(c1)OCO2", "note": "[GB-H, piperonyl pentadienoic acid]", "values": [{"measurement": "Total cholesterol value", "setting": "[1]; Table 6, mean ± standard deviation, n=10", "result": "13.23 ± 3.49"}, {"measurement": "Triglyceride value", "setting": "[1]; Table 7, mean ± standard deviation, n=10", "result": "1.31 ± 0.3219", "unit": "mmol/L"}, {"measurement": "Low density lipoprotein cholesterol", "setting": "[1]; Table 8, mean ± standard deviation, n=10", "result": "4.298 ± 1.0578", "unit": "mmol/L"}, {"measurement": "High density lipoprotein cholesterol", "setting": "[1]; Table 9, mean ± standard deviation, n=10", "result": "0.325 ± 0.0902", "unit": "mmol/L"}, {"measurement": "serum total cholesterol (TC) contents, Mean", "setting": "[1]; group mean n=10, 0.046 mmol/kg (Simvastatin 10 mg/kg), 15th day after administration", "result": 13.23, "unit": "mmol/L"}, {"measurement": "serum high density lipoprotein cholesterol (HDL) contents, Mean", "setting": "[1]; [3]", "result": 0.32, "unit": "mmol/L"}, {"measurement": "serum low density lipoprotein cholesterol (LDL) contents, Mean", "setting": "[1]; [3]", "result": 4.29, "unit": "mmol/L"}, {"measurement": "serum triglyceride (TG) contents, Mean", "setting": "[1]; [3]", "result": 1.31, "unit": "mmol/L"}, {"measurement": "effect on serum low density lipoprotein cholesterol, in words", "setting": "[1]; [4]", "result": "show the effect of lowering serum low density lipoprotein cholesterol value"}, {"measurement": "effect on serum total cholesterol, in words", "setting": "[1]; [4]", "result": "extremely significant differences"}, {"measurement": "effect on serum triglyceride, in words", "setting": "[1]; in comparison with group II (high lipid mode control group), listed as GB-1-1", "result": "extremely significant differences"}, {"measurement": "serum high density lipoprotein cholesterol (HDL) contents, individual rats", "setting": "[1]; [5]", "result": "0.26 mmol/L (2×) and 0.48 mmol/L and 0.18 mmol/L and 0.35 mmol/L and 0.28 mmol/L and 0.42 mmol/L and 0.41 mmol/L and 0.30 mmol/L and 0.31 mmol/L"}, {"measurement": "serum low density lipoprotein cholesterol (LDL) contents, individual rats", "setting": "[1]; [5]", "result": "4.53 mmol/L and 5.85 mmol/L and 4.24 mmol/L and 2.74 mmol/L and 4.19 mmol/L and 2.68 mmol/L and 5.09 mmol/L and 4.86 mmol/L and 3.51 mmol/L and 5.29 mmol/L"}, {"measurement": "serum triglyceride (TG) contents, individual rats", "setting": "[1]; [5]", "result": "1.15 mmol/L and 1.64 mmol/L and 1.71 mmol/L and 0.91 mmol/L and 0.88 mmol/L and 1.06 mmol/L and 1.58 mmol/L and 1.23 mmol/L and 1.70 mmol/L and 1.30 mmol/L"}, {"measurement": "serum total cholesterol (TC) contents, individual rats", "setting": "[1]; rats No. 1-10, high lipid feed plus drug 14 days, 0.046 mmol/kg (Simvastatin 10 mg/kg), 15th day after administration", "result": "16.64 mmol/L and 14.72 mmol/L and 10.11 mmol/L and 13.12 mmol/L and 9.56 mmol/L and 7.83 mmol/L and 12.22 mmol/L and 14.24 mmol/L and 14.28 mmol/L and 19.58 mmol/L"}, {"measurement": "Total cholesterol value", "setting": "[2]; Table 18, mean ± standard deviation, n=10", "result": "11.09 ± 1.82"}, {"measurement": "Triglyceride value", "setting": "[2]; Table 19, mean ± standard deviation, n=10", "result": "2.55 ± 0.42", "unit": "mmol/L"}, {"measurement": "Low density lipoprotein cholesterol", "setting": "[2]; Table 20, mean ± standard deviation, n=10", "result": "3.34 ± 1.30", "unit": "mmol/L"}, {"measurement": "High density lipoprotein cholesterol", "setting": "[2]; Table 21, mean ± standard deviation, n=10", "result": "0.67 ± 0.21", "unit": "mmol/L"}, {"measurement": "serum high density lipoprotein cholesterol (HDL) contents, Mean", "setting": "[2]; [3]", "result": 0.67, "unit": "mmol/L"}, {"measurement": "serum low density lipoprotein cholesterol (LDL) contents, Mean", "setting": "[2]; [3]", "result": 3.34, "unit": "mmol/L"}, {"measurement": "serum total cholesterol (TC) contents, Mean", "setting": "[2]; [3]", "result": 11.09, "unit": "mmol/L"}, {"measurement": "serum triglyceride (TG) contents, Mean", "setting": "[2]; [3]", "result": 2.55, "unit": "mmol/L"}, {"measurement": "effect on serum high density lipoprotein cholesterol, in words", "setting": "[2]; [4]", "result": "show the effect of some extent, of increasing high density lipoprotein cholesterol"}, {"measurement": "effect on serum low density lipoprotein cholesterol, in words", "setting": "[2]; [4]", "result": "significant differences"}, {"measurement": "effect on serum total cholesterol, in words", "setting": "[2]; [4]", "result": "extremely significant differences"}, {"measurement": "effect on serum triglyceride, in words", "setting": "[2]; [4]", "result": "extremely significant differences"}, {"measurement": "serum high density lipoprotein cholesterol (HDL) contents, individual rats", "setting": "[2]; [5]", "result": "0.67 mmol/L and 0.85 mmol/L and 0.72 mmol/L and 0.77 mmol/L and 0.37 mmol/L and 0.46 mmol/L and 0.82 mmol/L and 0.73 mmol/L and 1.02 mmol/L and 0.35 mmol/L"}, {"measurement": "serum low density lipoprotein cholesterol (LDL) contents, individual rats", "setting": "[2]; [5]", "result": "2.22 mmol/L and 5.37 mmol/L (2×) and 2.03 mmol/L and 3.35 mmol/L and 3.61 mmol/L and 2.68 mmol/L and 2.09 mmol/L and 4.36 mmol/L and 2.34 mmol/L"}, {"measurement": "serum triglyceride (TG) contents, individual rats", "setting": "[2]; [5]", "result": "1.97 mmol/L and 2.08 mmol/L and 2.37 mmol/L and 2.61 mmol/L (2×) and 2.82 mmol/L and 2.47 mmol/L and 3.04 mmol/L and 2.23 mmol/L and 3.31 mmol/L"}, {"measurement": "serum total cholesterol (TC) contents, individual rats", "setting": "[2]; rats No. 1-10, hyperlipoidemia mode, drug 14 days, 0.046 mmol/kg (Simvastatin 10 mg/kg), 15th day after administration", "result": "12.34 mmol/L and 9.37 mmol/L and 12.03 mmol/L and 10.25 mmol/L and 10.37 mmol/L and 9.36 mmol/L (2×) and 11.28 mmol/L (2×) and 15.24 mmol/L"}]}]}
